These results are taken from US7145009B2, “Pirazino(aza)indole derivatives” (priority 1999, dated 2006).

For data set [1], the target named is T1, h5-HT2A receptor (CHO cells) (Homo sapiens, UniProt P28223).
T1 construct: expressed in transfected cells; host or cells: CHO cells
The data set is described as follows: Functional activity, FLIPR calcium assay, h5-HT2A. The class given is cell-based. Particulars: for Emax: CHO, read-out: h5-HT2A Relative Efficacy. As for the experimental part:
(§1) The functional activity of compounds of formula (I) was assayed using a Fluorimetric Imaging Plate reader (FLIPR):
(§2) CHO cells expressing either the h5-HT2C or h5-HT2A receptors were counted and plated into standard 96 well microtitre plates before the day of testing to give a confluent monolayer. The following day the cells were dye loaded with the calcium sensitive dye Fluo 3-AM by incubation with serum free culture maintenance media containing pluronic acid and Fluo 3-AM dissolved in DMSO at 37° C. in a CO2 incubator at 95% humidity for approximately 90 minutes. Unincorporated dye was removed by washing with Hanks balanced salt solution containing 20 mM HEPES and 2.5 mM probenecid (the assay buffer) using an automated cell washer to leave a total volume of 100 μl/well.
(§3) The drug (dissolved in 50 μl of assay buffer) was added at a rate of 70 μl/sec to each well of the FLIPR 96 well plate during fluorescence measurements. The measurements are taken at 1 sec intervals and the maximum fluorescent signal was measured (approx 10–15 secs after drug addition) and compared with the response produced by 10 μM 5-HT (defined as 100%) to which it is expressed as a percentage response (relative efficacy). Dose response curves were constructed using Graphpad Prism (Graph Software Inc.).

The target in data set [2] is T2, h5-HT2C receptor (CHO cells) (Homo sapiens, UniProt P28335).
T2 construct: expressed in transfected cells; host or cells: CHO cells
T2 sequence (P28335 33-458): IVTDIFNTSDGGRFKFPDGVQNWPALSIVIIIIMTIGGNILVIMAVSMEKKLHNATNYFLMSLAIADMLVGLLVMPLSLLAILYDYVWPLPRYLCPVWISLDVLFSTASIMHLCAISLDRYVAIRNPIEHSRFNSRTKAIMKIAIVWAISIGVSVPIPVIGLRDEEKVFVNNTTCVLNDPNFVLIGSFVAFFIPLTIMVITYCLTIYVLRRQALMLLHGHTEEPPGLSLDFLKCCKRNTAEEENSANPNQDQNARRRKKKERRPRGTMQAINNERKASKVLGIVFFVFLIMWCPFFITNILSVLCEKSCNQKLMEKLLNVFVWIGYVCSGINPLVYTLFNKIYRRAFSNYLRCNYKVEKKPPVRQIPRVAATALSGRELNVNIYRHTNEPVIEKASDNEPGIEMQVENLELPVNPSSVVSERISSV
The data set is described as follows: Functional activity, FLIPR calcium assay, h5-HT2C. The data set is classed as cell-based. Particulars: for Emax: CHO, read-out: h5-HT2C Relative Efficacy. As for the experimental part:
as §1, §2, §3

A further data set has as its target T3, 5-HT1A receptors (Homo sapiens, UniProt P08908).
T3 sequence (P08908 1-422): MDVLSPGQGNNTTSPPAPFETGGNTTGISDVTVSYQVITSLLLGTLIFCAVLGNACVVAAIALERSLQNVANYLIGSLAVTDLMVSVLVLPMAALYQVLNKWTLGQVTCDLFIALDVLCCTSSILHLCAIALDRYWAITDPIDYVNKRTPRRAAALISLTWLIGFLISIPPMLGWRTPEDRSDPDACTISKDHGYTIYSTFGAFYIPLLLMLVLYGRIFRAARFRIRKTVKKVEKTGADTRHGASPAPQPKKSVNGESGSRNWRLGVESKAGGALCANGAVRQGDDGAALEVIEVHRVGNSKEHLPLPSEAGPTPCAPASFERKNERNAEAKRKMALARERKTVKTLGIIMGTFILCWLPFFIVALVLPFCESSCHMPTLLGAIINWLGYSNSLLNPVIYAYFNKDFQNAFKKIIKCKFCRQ
Particulars: literature report; cited from earlier work.

A further data set concerns food intake. As to conditions: rats, literature reports; cited from earlier work.
Where [3] appears, read: FLIPR, CHO cells, Fluo 3-AM, read-out: h5-HT2C EC50.

SMILES strings stand for the structures. Structures can show the parent of a compound that is named as a salt. Where two headings read alike, the source gives them in different places.

T1 sequence (P28223 whole entry): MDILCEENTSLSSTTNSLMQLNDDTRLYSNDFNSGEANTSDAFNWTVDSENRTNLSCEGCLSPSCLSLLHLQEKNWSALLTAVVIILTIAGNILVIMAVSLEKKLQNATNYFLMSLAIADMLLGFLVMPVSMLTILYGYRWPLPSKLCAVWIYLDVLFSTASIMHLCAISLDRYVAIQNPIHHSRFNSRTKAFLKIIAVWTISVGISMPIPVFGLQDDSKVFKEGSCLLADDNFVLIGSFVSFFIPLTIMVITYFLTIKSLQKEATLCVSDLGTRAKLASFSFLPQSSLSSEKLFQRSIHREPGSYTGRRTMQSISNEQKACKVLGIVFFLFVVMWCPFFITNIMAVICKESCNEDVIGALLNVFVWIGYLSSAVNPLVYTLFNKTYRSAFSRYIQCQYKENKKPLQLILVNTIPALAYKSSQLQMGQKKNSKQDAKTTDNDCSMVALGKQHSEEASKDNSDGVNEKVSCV

The term EC50 denotes the concentration that produces a half-maximal response. In the case of `Cc1cc2c(cc1Cl)N1CCNCC1C2` (racemic) [Example 5, (RS) 7-Chloro-8-methyl-1,2,3,4,10,10a-hexahydropyrazino[1,2-a]indole fumarate], in data set [1], the EC50 is 110 nM and the Emax turned out to be 87%. In addition, in data set [2], the EC50 is 20 nM and the Emax turned out to be 93%.
What is called melting point is the temperature of the solid-liquid transition. In the case of `CSc1ccc2c(c1)N1CCNCC1C2` (racemic) (as salt: fumarate) [Example 13, (RS) 7(Methylthio)-1,2,3,4,10,10a-hexahydropyrazino[1,2-a]indole fumarate], the melting point was in the range of 196 to 198 °C.
`Brc1ccc2c(c1)N1CCNCC1C2` (racemic) (as salt: hydrochloride) [Example 4, (RS) 7-Bromo-1,2,3,4,10,10a-hexahydropyrazino[1,2-a]indole hydrochloride]: the melting point was in the range of 243 to 245 °C.
`CSc1ccc2c(c1)N1CCNCC1C2` (racemic) [Example 13, (RS) 7(Methylthio)-1,2,3,4,10,10a-hexahydropyrazino[1,2-a]indole fumarate]: in data set [1], the EC50 came out at 176 nM and the Emax came to 59%. For the same molecule, in data set [2], the concentration giving a half-maximal response (EC50) stood at 86 nM and the Emax turned out to be 87%.
As for `Clc1ccc2c(c1)CC1CNCCN21` (racemic) [Example 2, (RS) 8-Chloro-1,2,3,4,10,10a-hexahydropyrazino[1,2-a]indole hydrochloride], the EC50 is 667 nM in data set [1] and 162 nM in data set [2] (setting [3]). The results for the Emax in data set [1] and in data set [2] were 88% and 84%, respectively.
As for `Fc1cc2c(cc1Cl)N1CCNCC1C2` (racemic) [Example 12, (RS) 7-Chloro-8-fluoro-1,2,3,4,10,10a-hexahydropyrazino[1,2-a]indole hemifumarate], the concentration giving a half-maximal response (EC50) is 106 nM in data set [1] and 22 nM in data set [2]. The values for the Emax in data set [1] and in data set [2] were 74% and 92%, respectively.
As to `Clc1cccc2c1CC1CNCCN21` (racemic) (as salt: hydrochloride) [Example 3, (RS) 9-Chloro-1,2,3,4,10,10a-hexahydropyrazino[1,2-a]indole hydrochloride], the melting point is 265 to 269 °C (dec.).
For `c1ccc2c(c1)CC1CNCCN21` (centres unmarked) [1,2,3,4,10,10a-Hexahydropyrazino[1,2-a]indole], at 5-HT1A receptors, the “selectivity for 5-HT1A receptors over 5-HT2 (binding affinity)” value is recorded as “ten fold”.
`Fc1cc2c(cc1Cl)N1CCNCC1C2` (racemic) (as salt: fumarate) [Example 12, (RS) 7-Chloro-8-fluoro-1,2,3,4,10,10a-hexahydropyrazino[1,2-a]indole hemifumarate] displayed a melting point of 195 to 197 °C.
With `Clc1cccc2c1CC1CNCCN21` (racemic) [Example 3, (RS) 9-Chloro-1,2,3,4,10,10a-hexahydropyrazino[1,2-a]indole hydrochloride], the EC50 in data set [1] was determined as 1020 nM; in data set [2] (setting [3]), 141 nM. Also, the Emax in data set [1] came to 49%; in data set [2], 82%.
Consider `Clc1ccc2c(c1)CC1CNCCN21` (racemic) (as salt: hydrochloride) [Example 2, (RS) 8-Chloro-1,2,3,4,10,10a-hexahydropyrazino[1,2-a]indole hydrochloride], for which the melting point is 258 to 262 °C (dec.).
In the case of `Clc1ccc2c(n1)N1CCNCC1C2` (racemic) (as salt: fumarate) [Example 6, (RS) 7-Chloro-1,2,3,4,10,10a-6-aza-hexahydropyrazino[1,2-a]-7-indole fumarate], the melting point worked out at 148 °C.
For the molecule `Brc1ccc2c(c1)N1CCNCC1C2` (racemic) [Example 4, (RS) 7-Bromo-1,2,3,4,10,10a-hexahydropyrazino[1,2-a]indole hydrochloride], in data set [1], the EC50 stood at 244 nM and the Emax was found to be 58%. In data set [2], the EC50 was found to be 13 nM and the Emax stood at 100%.
As for `Clc1ccc2c(c1)N1CCNCC1C2` (racemic) (as salt: hydrochloride) [Example 1, (RS) 7-Chloro-1,2,3,4,10,10a-hexahydropyrazino[1,2-a]indole hydrochloride], the melting point is 235 °C (dec.).
For `Clc1ccc2c(c1)N1CCNC[C@@H]1C2` [Example 7, (10aS) 7-Chloro-1,2,3,4,10,10a-hexahydropyrazino[1,2-a]indole hydrochloride], in data set [1], the concentration for a half-maximal effect (EC50) came out at 144 nM and the Emax amounted to 67%. In addition, in data set [2], the half-maximal effective concentration (EC50) came out at 161 nM and the Emax is 86%.
Turning to `C[C@H]1CN2c3cc(Cl)ccc3C[C@@H]2CN1` [Example 11, (3S,10aR) 7-Chloro-3-methyl-1,2,3,4,10,10a-hexahydropyrazino[1,2-a]indole hydrochloride], in data set [1], the EC50 came to 527 nM and the Emax stood at 38%. Moreover, in data set [2], the EC50 came to 58 nM and the Emax amounted to 92%.
For `Clc1ccc2c(c1)N1CCNC[C@H]1C2` [Example 8, (10aR) 7-Chloro-1,2,3,4,10,10a-hexahydropyrazino[1,2-a]indole hydrochloride], in that order: 100 nM, 59%, 3 nM and 87%.
Turning to `Clc1ccc2c(n1)N1CCNCC1C2` (racemic) [Example 6, (RS) 7-Chloro-1,2,3,4,10,10a-6-aza-hexahydropyrazino[1,2-a]-7-indole fumarate], the EC50 in data set [1] came to 1680 nM; in data set [2] (setting [3]), 174 nM. For the same molecule, the Emax in data set [1] is 47%; in data set [2] it was 100%.
For the molecule `Clc1cccc(N2CCNCC2)c1` [mCPP, m-chlorophenylpiperazine], the “effect on food intake” value with food intake was “reduce food intake”.
As for `C[C@H]1CN2c3cc(Cl)ccc3C[C@@H]2CN1` (as salt: hydrochloride) [Example 11, (3S,10aR) 7-Chloro-3-methyl-1,2,3,4,10,10a-hexahydropyrazino[1,2-a]indole hydrochloride], the melting point was 265 °C (dec.).
